In series [1] the target is T1, Protein deacetylase HDAC6 (Homo sapiens, UniProt Q9UBN7).
T1 sequence (Q9UBN7 whole entry): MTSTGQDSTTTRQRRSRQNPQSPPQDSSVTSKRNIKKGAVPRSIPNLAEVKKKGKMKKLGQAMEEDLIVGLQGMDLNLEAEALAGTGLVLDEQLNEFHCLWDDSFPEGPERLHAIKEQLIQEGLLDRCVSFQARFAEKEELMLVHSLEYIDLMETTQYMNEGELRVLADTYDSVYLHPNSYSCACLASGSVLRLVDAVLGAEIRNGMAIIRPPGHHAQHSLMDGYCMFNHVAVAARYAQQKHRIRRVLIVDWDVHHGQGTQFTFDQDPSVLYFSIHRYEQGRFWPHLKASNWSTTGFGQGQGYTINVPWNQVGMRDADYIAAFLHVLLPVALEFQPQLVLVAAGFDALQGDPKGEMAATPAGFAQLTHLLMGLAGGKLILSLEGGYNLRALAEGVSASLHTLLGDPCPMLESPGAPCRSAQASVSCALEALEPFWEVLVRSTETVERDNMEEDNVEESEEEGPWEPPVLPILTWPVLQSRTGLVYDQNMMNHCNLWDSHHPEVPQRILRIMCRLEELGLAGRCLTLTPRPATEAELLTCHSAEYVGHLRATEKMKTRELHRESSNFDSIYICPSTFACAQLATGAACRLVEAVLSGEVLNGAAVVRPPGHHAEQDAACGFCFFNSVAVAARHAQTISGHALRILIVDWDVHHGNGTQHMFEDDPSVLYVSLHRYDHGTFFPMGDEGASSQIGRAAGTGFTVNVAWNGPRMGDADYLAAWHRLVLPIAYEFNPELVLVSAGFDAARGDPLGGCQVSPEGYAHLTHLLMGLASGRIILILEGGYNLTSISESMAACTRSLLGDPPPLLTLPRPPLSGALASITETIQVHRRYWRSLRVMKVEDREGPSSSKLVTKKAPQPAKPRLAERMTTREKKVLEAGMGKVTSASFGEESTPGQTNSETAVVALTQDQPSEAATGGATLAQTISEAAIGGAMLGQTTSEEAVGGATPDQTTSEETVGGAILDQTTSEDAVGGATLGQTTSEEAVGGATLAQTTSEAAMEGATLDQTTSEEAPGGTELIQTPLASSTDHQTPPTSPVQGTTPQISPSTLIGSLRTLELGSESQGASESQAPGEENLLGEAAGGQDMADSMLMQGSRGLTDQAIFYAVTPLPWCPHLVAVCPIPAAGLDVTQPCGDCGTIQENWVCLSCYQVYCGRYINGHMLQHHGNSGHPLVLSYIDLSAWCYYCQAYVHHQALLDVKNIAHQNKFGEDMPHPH
Briefly: Inhibition of HDAC6 (unknown origin) preincubated for 10 mins followed by substrate addition measured for 1 hr by fluorescence based assay.

The target of series [2] is Histone deacetylase 1 (Homo sapiens, UniProt Q13547). As to the kind of experiment: Inhibition of HDAC1 (unknown origin) preincubated for 10 mins followed by substrate addition measured for 1 hr by fluorescence based assay.
Histone deacetylase 1, sequence (Q13547 whole entry): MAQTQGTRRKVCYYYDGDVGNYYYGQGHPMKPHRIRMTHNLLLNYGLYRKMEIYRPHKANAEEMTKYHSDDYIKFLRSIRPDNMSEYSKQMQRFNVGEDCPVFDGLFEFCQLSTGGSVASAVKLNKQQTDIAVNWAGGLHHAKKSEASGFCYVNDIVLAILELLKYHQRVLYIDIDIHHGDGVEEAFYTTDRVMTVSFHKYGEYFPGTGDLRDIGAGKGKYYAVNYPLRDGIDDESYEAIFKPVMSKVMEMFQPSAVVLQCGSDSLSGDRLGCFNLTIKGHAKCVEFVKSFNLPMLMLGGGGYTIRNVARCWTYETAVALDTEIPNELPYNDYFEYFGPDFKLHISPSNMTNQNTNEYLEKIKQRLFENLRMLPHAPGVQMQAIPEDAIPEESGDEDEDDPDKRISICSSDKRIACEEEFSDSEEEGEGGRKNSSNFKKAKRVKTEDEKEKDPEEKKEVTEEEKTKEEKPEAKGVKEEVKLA
The subject of series [3] is HCT-116. Briefly: Cytotoxicity against human HCT-116 cells assessed as inhibition of cell viability incubated for 24 hrs by CCK8 assay. It counts as functional, cell-based. The conditions noted are these: HCT-116, 24 h.
The target in series [4] is Histone deacetylase 3 (Homo sapiens, UniProt O15379). As to the kind of experiment: Inhibition of HDAC3 (unknown origin) preincubated for 10 mins followed by substrate addition by fluorescence based assay.
Histone deacetylase 3, sequence (O15379 whole entry): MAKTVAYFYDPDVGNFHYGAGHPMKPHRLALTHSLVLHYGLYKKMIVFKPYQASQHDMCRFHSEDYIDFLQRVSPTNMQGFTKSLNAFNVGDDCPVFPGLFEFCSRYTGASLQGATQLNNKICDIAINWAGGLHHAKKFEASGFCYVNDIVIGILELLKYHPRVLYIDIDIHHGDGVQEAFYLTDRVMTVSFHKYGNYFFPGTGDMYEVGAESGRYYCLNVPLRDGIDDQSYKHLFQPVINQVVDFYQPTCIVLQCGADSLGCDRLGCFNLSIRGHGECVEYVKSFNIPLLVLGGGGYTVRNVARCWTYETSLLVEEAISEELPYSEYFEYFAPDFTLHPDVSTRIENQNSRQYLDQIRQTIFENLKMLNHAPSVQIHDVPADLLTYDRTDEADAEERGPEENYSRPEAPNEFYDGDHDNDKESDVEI
Series [5] has as its target Histone deacetylase 9 (Homo sapiens, UniProt Q9UKV0). As to the kind of experiment: Inhibition of HDAC9 (unknown origin) preincubated for 10 mins followed by substrate addition by fluorescence based assay.
Series [6] concerns the target T2, Protein deacetylase HDAC6 (Homo sapiens) (UniProt Q9UBN7).
T2 sequence (whole entry): T1 sequence (Q9UBN7 whole entry)
Briefly: Inhibition of HDAC6 in human RPMI-8226 cells assessed as increase in Ac-H3 expression at 2.5 uM incubated for 24 hrs by Western blot analysis. In kind it is cell-based. In general terms: Immunoblotting shows a protein as a band on a membrane.

Series [7] relates to RPMI-8226. As to the kind of experiment: Induction of cell cycle arrest at G2 phase in human RPMI-8226 cells at 0.1 uM incubated for 24 hrs by PI staining based flow cytometry (reference value: 18.3 %). In kind it is functional. (In flow cytometry, cells or beads pass a laser one at a time.)
Series [8] relates to RPMI-8226. As to the kind of experiment: Induction of cell cycle arrest at S phase in human RPMI-8226 cells at 2.5 uM incubated for 24 hrs by PI staining based flow cytometry (reference value: 58.5 %). It counts as functional.
Series [9] relates to RPMI-8226. Briefly: Induction of apoptosis in human RPMI-8226 cells assessed as early apoptotic cells at 0.1 uM incubated for 24 hrs by Annexin V-FITC/PI staining based flow cytometry (reference value: 5.34 %). It counts as functional.
For series [10], the system named is RPMI-8226. Briefly: Induction of apoptosis in human RPMI-8226 cells assessed as late apoptotic cells at 0.1 uM incubated for 24 hrs by Annexin V-FITC/PI staining based flow cytometry (reference value: 2.78 %). It counts as functional.
The subject of series [11] is RPMI-8226. Briefly: Induction of apoptosis in human RPMI-8226 cells assessed as necrotic cells at 0.1 uM incubated for 24 hrs by Annexin V-FITC/PI staining based flow cytometry (reference value: 0.90 %). In kind it is functional.
The test system of series [12] is RPMI-8226. As to the kind of experiment: Induction of apoptosis in human RPMI-8226 cells assessed as early apoptotic cells at 0.5 uM incubated for 24 hrs by Annexin V-FITC/PI staining based flow cytometry (reference value: 5.34 %). It counts as functional.
The subject of series [13] is RPMI-8226. Briefly: Induction of apoptosis in human RPMI-8226 cells assessed as late apoptotic cells at 0.5 uM incubated for 24 hrs by Annexin V-FITC/PI staining based flow cytometry (reference value: 2.78 %). It counts as functional.
In series [14] the test system is RPMI-8226. Briefly: Induction of apoptosis in human RPMI-8226 cells assessed as viable cells at 2.5 uM incubated for 24 hrs by Annexin V-FITC/PI staining based flow cytometry (reference value: 90.98 %). In kind it is functional. The conditions noted are these: read-out: Activity.
The test system of series [15] is RPMI-8226. Briefly: Induction of apoptosis in human RPMI-8226 cells assessed as decrease in […] expression at 0.1 to 2.5 uM incubated for 24 hrs by Western blot analysis. It counts as functional, cell-based. The conditions noted are these: dose 0.1-2.5 µM.
Series [16] has as its system RPMI-8226. Briefly: Induction of apoptosis in human RPMI-8226 cells assessed as increase in Bax expression at 0.1 to 2.5 uM incubated for 24 hrs by Western blot analysis. It counts as functional, cell-based. The conditions noted are these: dose 0.1-2.5 µM.
The subject of series [17] is RPMI-8226. As to the kind of experiment: Induction of apoptosis in human RPMI-8226 cells assessed as increase in APAF-1 expression at 0.1 to 2.5 uM incubated for 24 hrs by Western blot analysis. It counts as functional, cell-based. The conditions noted are these: dose 0.1-2.5 µM.
The nature of series [18]: Clearance in mouse at 1 mg/kg, iv. The conditions noted are these: in vivo. It counts as ADME, organism-based.
The nature of series [19]: Half life in mouse at 10 mg/kg, po. It counts as ADME, organism-based. The conditions noted are these: in vivo.
Series [20] in a line: Toxicity in Balb/c nude mouse xenografted with human RPMI-8226 cells assessed as body weight loss at 10 to 40 mg/kg, po qd for 21 days administered consecutively. It counts as organism-based. The conditions noted are these: in vivo, 504 h, dose 10-40 mg/kg, time 21 day. In general terms: Xenograft models place foreign cells or tissue in a host animal.
The nature of series [21]: Toxicity in Balb/c nude mouse xenografted with human RPMI-8226 cells assessed as adverse effect on kidney at 10 to 40 mg/kg, po qd for 21 days administered consecutively by H and E staining based analysis. The conditions noted are these: in vivo, 504 h, dose 10-40 mg/kg, time 21 day. In kind it is organism-based.
Series [22] has as its system RPMI-8226. Briefly: cells. Particulars: Homo sapiens, RPMI-8226, 24 h.

Active and inactive are the calls of the source. The rule behind the calls is not given here.

Histone deacetylase 9, sequence (Q9UKV0 whole entry): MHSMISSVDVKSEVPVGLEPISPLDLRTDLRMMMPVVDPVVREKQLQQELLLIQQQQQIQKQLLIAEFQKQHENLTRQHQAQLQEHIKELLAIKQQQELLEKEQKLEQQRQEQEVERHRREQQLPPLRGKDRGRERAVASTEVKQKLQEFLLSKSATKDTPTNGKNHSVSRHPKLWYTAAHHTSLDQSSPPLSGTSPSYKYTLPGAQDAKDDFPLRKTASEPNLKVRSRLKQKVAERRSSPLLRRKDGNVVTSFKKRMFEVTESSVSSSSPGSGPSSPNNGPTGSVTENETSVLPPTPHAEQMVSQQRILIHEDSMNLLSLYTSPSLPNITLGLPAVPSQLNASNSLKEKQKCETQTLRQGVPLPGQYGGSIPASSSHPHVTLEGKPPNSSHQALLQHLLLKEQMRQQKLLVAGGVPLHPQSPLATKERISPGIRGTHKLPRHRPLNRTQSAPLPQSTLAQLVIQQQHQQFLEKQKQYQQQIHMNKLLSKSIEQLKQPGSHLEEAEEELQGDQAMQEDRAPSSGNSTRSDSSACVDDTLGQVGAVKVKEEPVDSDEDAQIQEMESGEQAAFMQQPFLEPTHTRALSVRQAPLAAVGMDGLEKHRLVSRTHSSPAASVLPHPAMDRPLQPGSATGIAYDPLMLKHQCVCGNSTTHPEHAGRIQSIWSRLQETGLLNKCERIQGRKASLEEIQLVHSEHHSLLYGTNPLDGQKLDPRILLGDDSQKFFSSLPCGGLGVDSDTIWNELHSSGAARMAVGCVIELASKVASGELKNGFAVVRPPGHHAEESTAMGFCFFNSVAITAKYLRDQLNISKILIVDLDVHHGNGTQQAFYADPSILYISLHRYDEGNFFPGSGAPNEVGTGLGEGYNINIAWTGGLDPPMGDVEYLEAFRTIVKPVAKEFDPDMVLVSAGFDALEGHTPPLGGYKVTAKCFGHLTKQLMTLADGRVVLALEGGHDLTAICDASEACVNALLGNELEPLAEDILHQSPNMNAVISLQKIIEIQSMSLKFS

A word on the IC50: it is the concentration at which inhibition is half-maximal. By clearance is commonly meant the volume of plasma or blood freed of the substance per unit of time. Usually half-life stands for how long it takes for the measured level to halve. As to `Cn1c([C@@H](Cc2ccccc2)NCc2ccccc2)nc2cc(C(=O)NO)ccc21`, the IC50 in series [1] was 4.63 nM; in series [2] it was 1130 nM; in series [3] it was 15.2 µM; in series [4] it was 1840 nM; in series [5], 1880 nM; in series [22], 528 nM. In addition, the inhibition result in series [6] was “Active”. The Activity in series [7] is 21.1%; in series [8] it was 39.8%; in series [9], 12.79%; in [10] it was 4.28%; in [11], 0.45%; in series [12] it was 14.04%. The Activity in series [13] is on record as 4.24%; in [20], “Non-Toxic”; in [21], “Non-Toxic”. The viability at 2.5 µM in [14] stood at 76.5%. Besides, the result in [15], in series [16] and in [17] was Active. In [18], this compound displayed a clearance of 82.9 mL/min/kg. Moreover, in [19], the half-life is 20 min.

For the origin of these results see ChEMBL document CHEMBL5634123, “Design and synthesis of 1H-benzo[d]imidazole selective HDAC6 inhibitors with potential therapy for multiple myeloma” (Eur J Med Chem, 2023).
